Assay results as given in PubChem BioAssay AID248 (DTP/NCI, 2004).
Several values for one entry are separate records, joined by “and”; a condition that tells them apart may be missing. Equal values may be shown once. Inconclusive results and toxic doses are left out. No stated cut-off is given here; in the data, active means T/C of 150% or more; inactive means T/C below 125%. Peptide text beside a SMILES is read from it. * marks the point of attachment. Cbz = O=C(OCc1ccccc1)*; OtBu = CC(C)(C)O*

Tested on: L1210 leukemia ip in BDF1 mice, survival T/C
Assay: NCI In Vivo Anticancer Drug Screen. Data for tumor model L1210 Leukemia (intraperitoneal) in B6D2F1 (BDF1) mice
Settings: endpoint: mean survival time, higher = longer survival
How it was run: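 Antitumor effect is assessed in tumor-bearing animals. Survival in the compound arm is compared with a vehicle-dosed control arm and expressed as their quotient.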

[1] = dose: 100.0 mg/kg/injection, schedule: Q01DX001 (ip), vehicle: saline
[2] = dose: 200.0 mg/kg/injection, schedule: Q01DX001 (ip), vehicle: saline
[3] = dose: 400.0 mg/kg/injection, schedule: Q01DX001 (ip), vehicle: saline
[4] = dose: 50.0 mg/kg/injection, schedule: Q01DX009 (ip), vehicle: Klucel (hydroxypropylcellulose) (HPC)
[5] = dose: 100.0 mg/kg/injection, schedule: Q04DX003 (ip), vehicle: saline with Tween-80
[6] = dose: 200.0 mg/kg/injection, schedule: Q04DX003 (ip), vehicle: saline with Tween-80
[7] = dose: 400.0 mg/kg/injection, schedule: Q04DX003 (ip), vehicle: saline with Tween-80
[8] = dose: 100.0 mg/kg/injection, schedule: Q01DX009 (ip), vehicle: saline with Tween-80
[9] = dose: 200.0 mg/kg/injection, schedule: Q01DX009 (ip), vehicle: saline with Tween-80
[10] = dose: 400.0 mg/kg/injection, schedule: Q01DX009 (ip), vehicle: saline with Tween-80
[11] = dose: 100.0 mg/kg/injection, schedule: Q01DX009 (ip), vehicle: Klucel (hydroxypropylcellulose) (HPC)
[12] = dose: 200.0 mg/kg/injection, schedule: Q01DX009 (ip), vehicle: Klucel (hydroxypropylcellulose) (HPC)
[13] = dose: 400.0 mg/kg/injection, schedule: Q01DX009 (ip), vehicle: Klucel (hydroxypropylcellulose) (HPC)
[14] = dose: 50.0 mg/kg/injection, schedule: Q01DX009 (ip), vehicle: saline
[15] = dose: 100.0 mg/kg/injection, schedule: Q04DX003 (ip), vehicle: saline
[16] = dose: 100.0 mg/kg/injection, schedule: Q04DX003 (ip), vehicle: Klucel (hydroxypropylcellulose) (HPC)
[17] = dose: 200.0 mg/kg/injection, schedule: Q04DX003 (ip), vehicle: Klucel (hydroxypropylcellulose) (HPC)
[18] = dose: 400.0 mg/kg/injection, schedule: Q04DX003 (ip), vehicle: Klucel (hydroxypropylcellulose) (HPC)
[19] = dose: 100.0 mg/kg/injection, schedule: Q01DX001 (ip), vehicle: saline with Tween-80
[20] = dose: 200.0 mg/kg/injection, schedule: Q01DX001 (ip), vehicle: saline with Tween-80
[21] = dose: 100.0 mg/kg/injection, schedule: Q04DX002 (ip), vehicle: Klucel (hydroxypropylcellulose) (HPC)
[22] = dose: 200.0 mg/kg/injection, schedule: Q04DX002 (ip), vehicle: Klucel (hydroxypropylcellulose) (HPC)
[23] = dose: 400.0 mg/kg/injection, schedule: Q04DX002 (ip), vehicle: Klucel (hydroxypropylcellulose) (HPC)

Measured: T/C

ClCCN(CCCl)CCN1c2ccccc2Sc2ccccc21
inactive: dose: 9.37 mg/kg/injection, schedule: Q01DX009 (ip), vehicle: Klucel (hydroxypropylcellulose) (HPC) 114 % of control | dose: 12.5 mg/kg/injection, schedule: Q01DX001 (ip), vehicle: Klucel (hydroxypropylcellulose) (HPC) 114 % of control | dose: 12.5 mg/kg/injection, schedule: Q04DX003 (ip), vehicle: saline with Tween-80 103 % of control | dose: 16.5 mg/kg/injection, schedule: Q01DX001 (ip), vehicle: Klucel (hydroxypropylcellulose) (HPC) 100 % of control and 111 % of control | dose: 18.75 mg/kg/injection, schedule: Q01DX009 (ip), vehicle: Klucel (hydroxypropylcellulose) (HPC) 106 % of control | dose: 25.0 mg/kg/injection, schedule: Q01DX001 (ip), vehicle: Klucel (hydroxypropylcellulose) (HPC) 95 % of control and 112 % of control | dose: 25.0 mg/kg/injection, schedule: Q04DX003 (ip), vehicle: saline with Tween-80 108 % of control | dose: 29.0 mg/kg/injection, schedule: Q01DX015 (ip), vehicle: carboxymethylcellulose (CMC) 102 % of control | dose: 37.5 mg/kg/injection, schedule: Q01DX001 (ip), vehicle: Klucel (hydroxypropylcellulose) (HPC) 101 % of control and 122 % of control | dose: 37.5 mg/kg/injection, schedule: Q01DX009 (ip), vehicle: Klucel (hydroxypropylcellulose) (HPC) 89 % of control | dose: 50.0 mg/kg/injection, schedule: Q04DX003 (ip), vehicle: saline with Tween-80 92 % of control | dose: 85.0 mg/kg/injection, schedule: Q04DX003 (ip), vehicle: Klucel (hydroxypropylcellulose) (HPC) 115 % of control | dose: 88.8 mg/kg/injection, schedule: Q01DX001 (ip), vehicle: carboxymethylcellulose (CMC) 115 % of control | dose: 100.0 mg/kg/injection, schedule: Q01DX001 (ip), vehicle: Klucel (hydroxypropylcellulose) (HPC) 119 % of control | dose: 100.0 mg/kg/injection, schedule: Q01DX001 (ip), vehicle: carboxymethylcellulose (CMC) 104 % of control | dose: 133.0 mg/kg/injection, schedule: Q01DX001 (ip), vehicle: carboxymethylcellulose (CMC) 113 % of control and 115 % of control

Oc1ccccc1C1OCCO1
inactive: [1] 107 % of control | [2] 95 % of control | [3] 95 % of control

CC(=O)CC(=O)NCC(CCN1CCCCC1)(c1cccc2ccccc12)C(C)C (stereo not given)
inactive: dose: 25.0 mg/kg/injection, schedule: Q01DX009 (ip), vehicle: Klucel (hydroxypropylcellulose) (HPC) 106 % of control | [4] 95 % of control

C/C(=C1\C(=O)Nc2ccccc21)c1ccco1
inactive: [5] 101 % of control | [6] 104 % of control | [7] 104 % of control

COC(=O)C(CCC(=O)OC(C)(C)C)NC(=O)C(NC(=O)OCc1ccccc1)C(C)C (stereo not drawn) (Cbz-Val-Glu(OtBu)-OMe; configuration not given here)
inactive: [8] 98 % of control | [5] 92 % of control | [9] 89 % of control | [6] 95 % of control | [10] 98 % of control | [7] 95 % of control

CC1=C2C3OC(=O)C(C)C3C=CC2(C)C(=O)CC1 (stereo not given)
inactive: [5] 87 % of control | [6] 89 % of control | [7] 89 % of control

COc1cc([N+](=O)[O-])ccc1NC(=O)Nc1c(C)n(C)n(-c2ccccc2)c1=O
inactive: [11] 97 % of control | [12] 93 % of control | [13] 93 % of control

NOCc1cccc2cccnc12
inactive: dose: 25.0 mg/kg/injection, schedule: Q01DX009 (ip), vehicle: saline 100 % of control | [14] 100 % of control | dose: 100.0 mg/kg/injection, schedule: Q01DX009 (ip), vehicle: saline 97 % of control | [15] 89 % of control | dose: 200.0 mg/kg/injection, schedule: Q04DX003 (ip), vehicle: saline 94 % of control | dose: 400.0 mg/kg/injection, schedule: Q04DX003 (ip), vehicle: saline 96 % of control

OC1CCCCC1Br (stereo not given)
inactive: dose: 50.0 mg/kg/injection, schedule: Q01DX001 (ip), vehicle: saline 96 % of control | [1] 98 % of control | [2] 113 % of control | [3] 102 % of control

COC(=O)c1cc(Cl)c(C(=O)OC)cc1Cl
inactive: [16] 90 % of control | [17] 98 % of control | [18] 102 % of control

CN(C)C(=S)Oc1ccc(C(F)(F)F)cc1
inactive: [16] 95 % of control | [17] 93 % of control | [18] 101 % of control

COc1ccc2c(c1C)CCC1(CO)C(C(C)=O)=CCC21 (stereo not given)
inactive: [11] 105 % of control | [16] 92 % of control | [12] 110 % of control | [17] 97 % of control | [13] 100 % of control | [18] 102 % of control

O=C(O)c1ccccc1C(=O)OC1=CS(=O)(=O)CC1
inactive: dose: 50.0 mg/kg/injection, schedule: Q01DX001 (ip), vehicle: saline with Tween-80 97 % of control | [19] 101 % of control and 104 % of control | [20] 95 % of control and 123 % of control | dose: 400.0 mg/kg/injection, schedule: Q01DX001 (ip), vehicle: saline with Tween-80 104 % of control and 105 % of control

Brc1ccc(SCN(CSc2ccc(Br)cc2)Cc2ccccc2)cc1
inactive: [1] 93 % of control | [2] 87 % of control | [3] 93 % of control

O=C(Cl)C1CC2c3ccccc3C1([N+](=O)[O-])c1ccccc12 (stereo not given)
inactive: [4] 109 % of control | [11] 102 % of control | [16] 104 % of control | [12] 112 % of control and 91 % of control | [17] 104 % of control | [13] 101 % of control | [18] 98 % of control

NC(=S)N/N=C\c1cccs1
inactive: [21] 96 % of control | [22] 107 % of control | [23] 102 % of control

C=CCc1cc(OC)c(OC)c(OC)c1
inactive: [8] 104 % of control | [9] 101 % of control | [10] 101 % of control

COc1ccccc1/C=C/c1cnccn1
inactive: [11] 98 % of control | [16] 96 % of control | [12] 101 % of control | [17] 102 % of control | [13] 93 % of control | [18] 104 % of control

CCOC(=O)CS(=O)(=O)CS(=O)(=O)CC(=O)OCC
inactive: [21] 94 % of control | [22] 100 % of control | [23] 100 % of control

N#CC=P(c1ccccc1)(c1ccccc1)c1ccccc1
inactive: [14] 87 % of control

Nc1ncnc2nc(SC3OC(CO)C(O)C3O)[nH]c12 (stereo not given)
inactive: dose: 150.0 mg/kg/injection, schedule: Q01DX001 (ip), vehicle: saline 100 % of control | dose: 300.0 mg/kg/injection, schedule: Q01DX001 (ip), vehicle: saline 100 % of control

CCCC(=O)N1CCCCC1
inactive: [21] 88 % of control

N/N=C(\N)c1nn(C2OC(CO)C(O)C2O)c2ncnc(N)c12 (stereo not given)
inactive: dose: 60.0 mg/kg/injection, schedule: Q01DX005 (ip), vehicle: saline 116 % of control | dose: 100.0 mg/kg/injection, schedule: Q01DX005 (ip), vehicle: saline 124 % of control | dose: 200.0 mg/kg/injection, schedule: Q01DX005 (ip), vehicle: saline 113 % of control

CCCCCCCNCCC#N
inactive: [19] 95 % of control | [20] 89 % of control

CCCCCCCCCCCCNC(=O)C[n+]1cccc(C(N)=O)c1
inactive: [15] 96 % of control

COC1=C(C(=O)O)P(C)(=O)CC1 (stereo not given)
inactive: dose: 50.0 mg/kg/injection, schedule: Q04DX002 (ip), vehicle: saline with Tween-80 95 % of control | dose: 100.0 mg/kg/injection, schedule: Q04DX002 (ip), vehicle: saline with Tween-80 98 % of control | dose: 200.0 mg/kg/injection, schedule: Q04DX002 (ip), vehicle: saline with Tween-80 95 % of control

Nc1ccc2c(c1)S(=O)(=O)c1cc(N)c(S(=O)(=O)O)cc1-2
inactive: [21] 115 % of control | [22] 94 % of control | [23] 97 % of control
